PubChem BioAssay AID2753 (Vanderbilt High Throughput Screening Facility, 2010)
Calls of active or inactive are those of the source. The rule behind the calls is not given here.

These compounds were tested against ATP-sensitive inward rectifier potassium channel 1 (Homo sapiens) (UniProt P48048) (assay: concentration-response of Kir1.1 channel inhibition – cell-based, thallium flux, HEK293, dose response (AID 2753)). Settings: HEK293 ROMK thallium flux, fluorescence.
Sequence of ATP-sensitive inward rectifier potassium channel 1 (Homo sapiens) (P48048 whole entry, looked up): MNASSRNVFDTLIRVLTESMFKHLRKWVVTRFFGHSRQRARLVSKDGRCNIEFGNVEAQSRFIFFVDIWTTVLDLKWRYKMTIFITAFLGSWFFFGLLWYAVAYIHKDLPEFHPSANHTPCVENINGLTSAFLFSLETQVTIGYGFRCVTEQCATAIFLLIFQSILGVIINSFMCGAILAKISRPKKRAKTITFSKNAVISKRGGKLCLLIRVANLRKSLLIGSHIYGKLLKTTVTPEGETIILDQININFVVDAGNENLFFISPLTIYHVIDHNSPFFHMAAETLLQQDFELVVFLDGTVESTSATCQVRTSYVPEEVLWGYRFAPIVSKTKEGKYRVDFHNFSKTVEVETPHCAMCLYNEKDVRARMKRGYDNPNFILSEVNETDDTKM

Compound | IC50
Cc1cc(N2CCOCC2)ccc1/C=C\[N+](=O)[O-] | 3.4 µM
CCCCC1(CCCC)C(=O)NC(=Nc2cccc(C)c2)NC1=O | 3.01 µM
O=C(c1nnsc1S(=O)c1ccc(Cl)cc1)N1CCOCC1 (configuration not stated) | 2.2 µM
Cc1c(N2C(=O)/C(=C\C3CC=CCC3)SC2=S)c(=O)n(-c2ccccc2)n1C (configuration not stated) | 2.66 µM
CC(C)c1[nH]nc2c1C(c1cccs1)C(C#N)=C(N)O2 (configuration not stated) | inactive
O=C(CCl)N(c1ccccc1)c1ccccc1 | inactive
COc1cc(NC(C)=O)c2ncccc2c1[N+](=O)[O-] | 21.1 µM
CCOC(=O)C(=Cc1ccc(-n2cncn2)cc1)C(=O)OCC | 95.8 µM
COCCCNc1ccc([N+](=O)[O-])cc1C(=O)Nc1cccc(C)n1 | 13.7 µM
COc1ccc(C2(O)CCN(CCCCOc3ccccc3)CC2)cc1 | 10.8 µM
COC(=O)c1cc([N+](=O)[O-])c(-n2cncn2)c([N+](=O)[O-])c1 | 5.07 µM
CSc1ccc(/C=C(\C#N)C(=O)NC2CCCCC2C)cc1 (configuration not stated) | 3.24 µM
CCN(CC)S(=O)(=O)c1ccc(OC)c(NC(=O)CSc2cc(C)ccc2C)c1 | 12.8 µM
COC(=O)/C=C1/SC(=NC(=O)c2ccc(F)cc2)NC1=O | 19.1 µM
O=C1CCCCCN1Sc1ccccc1 | 4.49 µM
Cc1cc(Cl)c(S(=O)(=O)Nc2ccc3c(c2)OCCO3)cc1OCC(=O)NC1CCCCC1 | 3.55 µM
N#CC(C#N)=C1C=CC=CN1/C(=C\c1ccccc1Cl)C(=O)c1ccccc1 | 6.03 µM
CS(=O)(=O)N1CCc2cc(-c3csc(NC(=O)Cc4cccs4)n3)ccc21 | inactive
Cc1cc2c(cc1S(=O)(=O)N(C)c1ccccc1)NC(=O)CO2 | 0.909 µM
O=C1c2cccc3c([N+](=O)[O-])ccc(c23)C(=O)N1CC1CCCO1 (configuration not stated) | inactive
CC(C)C(c1nnnn1Cc1ccccc1)N1CCN(Cc2ccc3c(c2)OCO3)CC1 (configuration not stated) | 5.83 µM
O=C(CN1CCCC1)Nc1c2c(nc3ccccc13)N(Cc1ccccc1)CC2 | inactive
COc1ccc(-n2nc(C#N)c(Cl)cc2=O)cc1 | 10.3 µM

Compound | IC50
COc1ccc(CNCC(O)COc2ccc(C)cc2[N+](=O)[O-])cc1 (configuration not stated) | inactive
COc1cc(/C=C(\C#N)C(=O)Nc2ccccc2C(=O)O)cc(Cl)c1OC | 3.3 µM
COc1cccc(/C=C2\SC(=S)N(N3C(=O)CCCC3=O)C2=O)c1 | inactive
O=C(Nc1ccc2oc(=O)ccc2c1)c1cc([N+](=O)[O-])ccc1N1CCOCC1 | 3.41 µM
Cn1nc(C(F)(F)F)c(C#N)c1N1CCN(c2ccccc2)CC1 | 15.2 µM
COc1ccc2c(c1OC)C(=O)OC2Nc1nc(-c2cc3ccccc3oc2=O)cs1 (configuration not stated) | inactive
CC1CCCCC1NC(=O)CN1C(=O)CSc2cc(S(=O)(=O)N3CCCCCC3)ccc21 (configuration not stated) | 55.3 µM
COC(=O)C1=C(C)N(C)C(C)=C(C(=O)OC)C1c1ccccc1C | 39.9 µM
CCOC(=O)CS(=O)(=O)c1nc(-c2ccccc2)cc(C(F)(F)F)n1 | 12.4 µM
CNC(=O)c1nnsc1S(=O)c1ccc(Cl)cc1 (configuration not stated) | 0.647 µM
N#C/C(=C\c1cccc(Oc2ccccc2)c1)C(=O)N1CCOCC1 | 6.57 µM
O=C(CCl)N(Cc1cccc([N+](=O)[O-])c1)c1cccc(Cl)c1 | 9.65 µM
COC(=O)/C=C1\SC(=NC(=O)c2cccc(Cl)c2)NC1=O | inactive
N#Cc1nc(N2CCCC2)nc(N2CCCC2)n1 | 41.7 µM
Cc1cc(=O)oc2cc(NC(=S)NCc3ccccn3)ccc12 | 7.2 µM
CCCN1C(=O)/C(=C/c2ccncc2)SC1=S | 7.7 µM
O=C1ON=C(c2cccc([N+](=O)[O-])c2)/C1=C/c1ccc(O)cc1 | 5.68 µM
CC(=O)c1ccc(N/N=C(/C(N)=O)C2=NC(C)(C)Cc3ccccc32)cc1 | 26.9 µM
C=CCNC(=O)/C(C#N)=C\c1cc(Cl)c(OCC)c(OC)c1 | 86.8 µM
COC(=O)N/N=C/c1ccc(-c2cc(Cl)ccc2Cl)o1 | 5.79 µM
Cc1ccc(/C=C(\C#N)C(=O)NCCN2CCOCC2)cc1 | inactive
CSC1=C(C#N)C(=O)NC(c2ccccc2O)S1 (configuration not stated) | 7.63 µM
CNC(=O)c1nnsc1S(=O)(=O)c1ccc(Cl)cc1 | 7.46 µM

Compound | IC50
COCCNC(=O)/C(C#N)=C/c1c(F)cccc1Cl | 9.2 µM
Cn1c(=O)c([N+](=O)[O-])c(Cl)c2ccccc21 | 5.56 µM
Cc1ccc(C2=NOC(=O)/C2=C\c2ccc(C)o2)cc1 | 5.22 µM
CC(C)(C)c1ccc(N2C(=N)SCC2=O)cc1 | 3.24 µM
COc1ccccc1-n1c(SCC(=O)N2CCc3ccccc32)nc2c(c1=O)SCC2 | 6.43 µM
O=c1c2ccccc2nc(/C=C/c2ccc([N+](=O)[O-])o2)n1CCCO | inactive
C[n+]1c2n(c3ccccc31)N=C(c1cc(C(C)(C)C)c(O)c(C(C)(C)C)c1)CS2 | 73.3 µM
O=C1C=C(c2ccccc2)C(=O)N1Nc1ccccc1 | 2.77 µM
CC(CCc1ccccc1)NC(=O)CN1CCN(c2ccccc2)CC1 (configuration not stated) | inactive
COc1ccc(NC(=O)/C(Cl)=C(/Cl)S(=O)Cc2ccccc2)cn1 (configuration not stated) | 1.21 µM
CCCC(=O)OCCNc1cc(Sc2nccn2C)c2nonc2c1[N+](=O)[O-] | 157 µM
CCCC(C(=O)NCc1ccco1)N(C(=O)CNS(=O)(=O)c1ccccc1)c1ccccc1OC (configuration not stated) | inactive
CCCNC(=O)c1nnsc1S(=O)c1ccc(Cl)cc1 (configuration not stated) | 2.8 µM
N#C/C(=C/c1cc(Br)cs1)C(=O)NCC1CCCO1 (configuration not stated) | inactive
CCOC(=O)c1ccc(-n2c(O)c(/C=N/NC(=O)C3COc4ccccc4O3)c3ccccc3c2=O)cc1 (configuration not stated) | inactive
CC(NC(=O)/C(C#N)=C/c1cccs1)c1ccccc1 (configuration not stated) | 69.5 µM
CCCCNC(=O)/C(C#N)=C/c1ccc(F)cc1F | 3.93 µM
COC(=O)C(=Cc1ccccc1[N+](=O)[O-])C(=O)OC | 8.19 µM
CC(=O)c1c(C)nc(-c2cccc([N+](=O)[O-])c2)n1O | inactive
O=C(/C=C/c1cn(CC(O)CN2CCCCC2)c2ccccc12)c1ccccc1 (configuration not stated) | inactive
COCc1cc(C)nc(SCC[N+](C)(C)CC(=O)Nc2cccc(C(F)(F)F)c2)c1C#N | 9.27 µM
O=[N+]([O-])c1ccc(S(=O)(=O)N2CCN(Cc3c[nH]c4ccccc34)CC2)cc1 | inactive
O=C(/C=C\c1cccs1)c1c(O)ccc2ccc(=O)oc12 | 4.79 µM

Compound | IC50
CCC(CC)C(=O)Nc1c2cnn(-c3ccccc3)c2nc(=O)n1-c1ccccc1 | 14 µM
O=C1CC(N2CCN(Cc3ccc4c(c3)OCO4)CC2)C(=O)N1c1cccc2ccccc12 (configuration not stated) | inactive
Cc1c(Nc2cc(Cl)c3nonc3c2[N+](=O)[O-])c(=O)n(-c2ccccc2)n1C | 52.8 µM
O=C(c1ccc([N+](=O)[O-])cc1)N(Cc1ccc(Br)cc1)N1C(=O)CCCC1=O | 0.32 µM
Cc1ccc(-n2c3nc(=O)[nH]c(=O)c-3cc3cc([N+](=O)[O-])ccc32)cc1 | 8.66 µM
Cc1ccc(N2C(=O)NC(=O)/C(=C\C=C\c3ccco3)C2=O)cc1C | 2.33 µM
O=[N+]([O-])c1ccc(N2CCCNCC2)c2ncccc12 | 10.7 µM
O=C(NC1CCCCCC1)c1cc(S(=O)(=O)N2CCCCC2)ccc1N1CCOCC1 | 5.44 µM
N#C/C(=C\C1CC=CCC1)c1nc2ccccc2[nH]1 (configuration not stated) | inactive
Cn1c(/C(C#N)=C/c2cccc(O)c2)nc2ccccc21 | inactive
COc1cc(/C=C2\C(=N)N3N=CSC3=NC2=O)cc(Br)c1OC(=O)c1ccco1 | 4.53 µM
Cc1cc(C)n2nc(/C(C#N)=C/c3ccccn3)c(C#N)c2n1 | 88.3 µM
O=C(/C(=C/c1ccc(Cl)cc1)c1nc2ccccc2[nH]1)c1cccs1 | 4.56 µM
CCN1C(=O)c2cccc3c(S(=O)(=O)Nc4ccccc4OC)ccc1c23 | inactive
CC1CN(c2ccc([N+](=O)[O-])c(NCCOc3ccccc3)c2)CCN1 (configuration not stated) | inactive
CN(C)c1cc(O)c(C(=S)Nc2ccccc2)c(N(C)C)c1 | 75.5 µM
CCOCCCNC(=O)/C(C#N)=C/c1ccccc1F | inactive
N#C/C(=C/c1ccncc1)c1nc2ccccc2s1 | 2.68 µM
CCOC(=O)c1c(C)n(C)c2ccc(OC)c(NC(=O)CN3CCCCC3)c12 | 7.88 µM
CCCNc1nc(Cl)nc(NC(C)(C)C)n1 | 2.78 µM
Cc1cccc(C2c3[nH]c4ccccc4c3CCN2C(=O)c2nn(C)c(=O)c3ccccc23)n1 (configuration not stated) | inactive
N#Cc1ccc(/C=C/C(=O)c2cccnc2)cc1 | 4.51 µM
c1csc(CNc2ncnc3sccc23)c1 | inactive

Compound | IC50
COc1cc2c(cc1OC)C(/C=C/c1ccco1)=NCC2 | 4.07 µM
Cc1ccc2nc(NC(=O)C(NS(=O)(=O)c3cccc4nsnc34)C(C)C)sc2c1 (configuration not stated) | inactive
Cc1ccc(Oc2c(C(N)=O)cc([N+](=O)[O-])cc2[N+](=O)[O-])cc1 | 51 µM
COCCNC(=O)/C(C#N)=C/c1cccc(/C=C(\C#N)C(=O)NCCOC)c1 | 2.87 µM
N#CC1=C(N)N(c2ccccc2)C(c2ccccc2)C1(C#N)C#N (configuration not stated) | 32.2 µM
COc1cc(NC(=O)C2CCN(S(=O)(=O)c3ccc(Cl)cc3)CC2)ccc1-n1cnnn1 | 2.1 µM
O=C(Cn1nc(Cl)nc1Cl)c1cc2ccccc2oc1=O | 18 µM
O=C(O)c1cccc(CN2C(=O)S/C(=C/c3cccc([N+](=O)[O-])c3)C2=O)c1 | 5.71 µM
CC1CCCCC1NC(=O)/C(C#N)=C/c1ccccc1F (configuration not stated) | 4.75 µM
N#C/C(=C\c1cccc([N+](=O)[O-])c1)C(=O)NCC1CCCO1 (configuration not stated) | inactive
Cc1nn(-c2ccccc2)c(Cl)c1/C=C(\C#N)C(=O)NC(C)C | 45.5 µM
CCCNC(=O)c1nnsc1S(=O)(=O)c1ccc(Cl)cc1 | 9.69 µM
COc1cc(/C=C(/C(=O)c2cccs2)c2nc3ccccc3[nH]2)ccc1O | inactive
O=C1c2[nH]nc(-c3ccccc3O)c2C(c2cccc(Cl)c2)N1CC1CCCO1 (configuration not stated) | inactive
COc1cc(/C=C(\C#N)C(N)=O)ccc1OS(=O)(=O)c1ccc(C)cc1 | 31 µM
Cc1cc(NC(=O)/C=C/C(=O)N(CC(=O)NC2CCCC2)c2cccc3ccccc23)no1 | 9.96 µM
N#Cc1cccc(N=c2ssnc2Cl)c1 | 8.39 µM
Cc1nn(CCCC(=O)N2CCN(c3ccc(F)cc3)CC2)c(C)c1[N+](=O)[O-] | inactive
Cc1ccc(C)n1-c1ccc(-n2cnnn2)cc1 | 10.4 µM
CCCn1c(=S)[nH]c2cc(C(=O)N3CCCC(C(=O)OCC)C3)ccc2c1=O (configuration not stated) | inactive
